In patent US11927585B2, “Solvent-based inks and coatings for food contact applications” (SUN CHEMICAL CORPORATION, priority 2020, dated 2024):
Structures can show the parent of a compound that is named as a salt. Where two headings read alike, the source gives them in different places.

Assays:
[1] = cited from earlier work
[2] = Worst-case calculation (100% migration), standard EU Cube exposure model; details: for Worst Case Calculation of migration in EU Cube model (as a percentage of SML) / Worst-case calculation as a percentage of SML (or restriction), EU Cube: 100% migration; for Worst Case Calculation of migration in EU Cube model (as a percentage of SML): dry coat weight 2.0 g/m^2; for Worst Case Calculation of migration in EU Cube model: Basis for Safety outcome: volatile substance; for Worst-case calculation as a percentage of SML (or restriction), EU Cube: 2.0 g/m^2 dry film
[3] = Worst-case calculation, Application 1 yoghurt pot lid exposure scenario; details: 100% migration, 2.0 g/m^2 dry film
[4] = Worst-case calculation, Application 2 cheese packaging wrap exposure scenario; details: 100% migration, 2.0 g/m^2 dry film
[5] = substance in ink SBDEV980 (Ex. 4B Red)
[6] = source PR (EU Plastics Regulation No. 10/2011) or SO (Swiss Ordinance), EU Cube model
[7] = substance in ink SBDEV976 (Ex. 4C Cyan)
[8] = substance in ink SBDEV977 (Ex. 4A Yellow)
[9] = substance in ink SBDEV979 (Ex. 4D Black)

Q: For `O=C(O)c1c(-c2ccc(-c3ccccc3)cc2)[nH]c2nc(-c3ccc(-c4ccccc4)cc3)nc(-c3ccc(-c4ccccc4)cc3)c12` [2,4,6-Tris-Biphenyl-4-Yl-7H-Pyrrolo[2,3-D]Pyrimidine-5-Carboxylic Acid], which “SML (or restriction)” value ([1]; Source of SML or restriction: Default 10 ppb) is on record?
A: 0.01 mg substance/kg food

Q: What about the “SML or Restriction (mg substance/kg food)” value (“SML or Restriction” below) ([1]; source Default 10 ppb) of the same compound?
A: 0.01 mg substance/kg food

Q: And the “Worst Case Calculation of migration in EU Cube model (as a percentage of SML)” value [2, 5]?
A: 380 percentage of SML

Q: Which “SML or Restriction” value [1, 6] does the source give for `CCO` [0000064-17-5, ethanol] here?
A: 60 mg substance/kg food

Q: And the “Worst Case Calculation of migration in EU Cube model: Basis for Safety outcome” value (“Worst Case Calculation … for Safety outcome” below) [2, 7]?
A: Converter

Q: And the “Worst Case Calculation … for Safety outcome” value [2, 8]?
A: Converter

Q: What about the “Worst Case Calculation … for Safety outcome” value [2, 9] of the same compound?
A: Converter

Q: And the “Worst Case Calculation … for Safety outcome” value [2, 5]?
A: Converter

Q: For `CCCOC(C)=O` [0000109-60-4, Acetic acid, propyl ester], which “SML or Restriction” value [1, 6] is on record?
A: 60 mg substance/kg food

Q: What about the “Worst Case Calculation … for Safety outcome” value [2, 7] of the same compound?
A: Converter

Q: And the “Worst Case Calculation … for Safety outcome” value [2, 8]?
A: Converter

Q: And the “Worst Case Calculation … for Safety outcome” value [2, 9]?
A: Converter

Q: What about the “Worst Case Calculation … for Safety outcome” value [2, 5] of the same compound?
A: Converter

Q: For `CCCCOC(=O)CC(O)(CC(=O)OCCCC)C(=O)OCCCC` [0000077-94-1, Tributyl citrate], which “SML or Restriction” value [1, 6] is on record?
A: 0.05 mg substance/kg food

Q: What about the “Worst-case calculation as a percentage of SML (or restriction), Application 1” value ([3]; product SBDEV976) of the same compound?
A: 21.7 percentage of SML (or restriction)

Q: What about the “Worst-case calculation as a percentage of SML (or restriction), Application 1” value ([3]; product SBDEV977) of the same compound?
A: 20.9 percentage of SML (or restriction)

Q: And the “Worst-case calculation as a percentage of SML (or restriction), Application 1” value ([3]; product SBDEV979)?
A: 20.8 percentage of SML (or restriction)

Q: What about the “Worst-case calculation as a percentage of SML (or restriction), Application 1” value ([3]; product SBDEV980) of the same compound?
A: 21.0 percentage of SML (or restriction)

Q: And the “Worst-case calculation as a percentage of SML (or restriction), Application 1” value ([3]; product SBDEV1284)?
A: 20.73 percentage of SML (or restriction)

Q: And the “Worst-case calculation as a percentage of SML (or restriction), Application 1” value ([3]; product SBDEV1285)?
A: 20.73 percentage of SML (or restriction)

Q: What about the “Worst-case calculation as a percentage of SML (or restriction), Application 1” value ([3]; product SBDEV1286) of the same compound?
A: 20.73 percentage of SML (or restriction)

Q: What about the “Worst-case calculation as a percentage of SML (or restriction), Application 1” value ([3]; product SBDEV1287) of the same compound?
A: 20.73 percentage of SML (or restriction)

Q: What about the “Worst-case calculation as a percentage of SML (or restriction), EU Cube” value (“Worst-case calculation as a percentage … EU Cube” for short) ([2]; product SBDEV976) of the same compound?
A: 55.2 percentage of SML (or restriction)

Q: What about the “Worst-case calculation as a percentage … EU Cube” value ([2]; product SBDEV977) of the same compound?
A: 53.2 percentage of SML (or restriction)

Q: What about the “Worst-case calculation as a percentage … EU Cube” value ([2]; product SBDEV979) of the same compound?
A: 52.8 percentage of SML (or restriction)

Q: And the “Worst-case calculation as a percentage … EU Cube” value ([2]; product SBDEV980)?
A: 53.4 percentage of SML (or restriction)

Q: And the “Worst-case calculation as a percentage … EU Cube” value ([2]; product SBDEV1284)?
A: 52.8 percentage of SML (or restriction)

Q: And the “Worst-case calculation as a percentage … EU Cube” value ([2]; product SBDEV1285)?
A: 52.8 percentage of SML (or restriction)

Q: And the “Worst-case calculation as a percentage … EU Cube” value ([2]; product SBDEV1286)?
A: 52.8 percentage of SML (or restriction)

Q: What about the “Worst-case calculation as a percentage … EU Cube” value ([2]; product SBDEV1287) of the same compound?
A: 52.8 percentage of SML (or restriction)

Q: And the “Worst Case Calculation of migration in EU Cube model (as a percentage of SML)” value [2, 7]?
A: 55.2 percentage of SML

Q: What about the “Worst Case Calculation of migration in EU Cube model (as a percentage of SML)” value [2, 8] of the same compound?
A: 53.2 percentage of SML

Q: What about the “Worst Case Calculation of migration in EU Cube model (as a percentage of SML)” value [2, 9] of the same compound?
A: 52.8 percentage of SML

Q: What about the “Worst Case Calculation of migration in EU Cube model (as a percentage of SML)” value [2, 5] of the same compound?
A: 53.4 percentage of SML

Q: And the “Worst-case calculation as a percentage of SML (or restriction), Application 2” value ([4]; product SBDEV976)?
A: 79.6 percentage of SML (or restriction)

Q: And the “Worst-case calculation as a percentage of SML (or restriction), Application 2” value ([4]; product SBDEV977)?
A: 76.7 percentage of SML (or restriction)

Q: And the “Worst-case calculation as a percentage of SML (or restriction), Application 2” value ([4]; product SBDEV979)?
A: 76.0 percentage of SML (or restriction)

Q: And the “Worst-case calculation as a percentage of SML (or restriction), Application 2” value ([4]; product SBDEV980)?
A: 76.9 percentage of SML (or restriction)

Q: And the “Worst-case calculation as a percentage of SML (or restriction), Application 2” value ([4]; product SBDEV1284)?
A: 76.01 percentage of SML (or restriction)

Q: What about the “Worst-case calculation as a percentage of SML (or restriction), Application 2” value ([4]; product SBDEV1285) of the same compound?
A: 76.01 percentage of SML (or restriction)

Q: And the “Worst-case calculation as a percentage of SML (or restriction), Application 2” value ([4]; product SBDEV1286)?
A: 76.01 percentage of SML (or restriction)

Q: What about the “Worst-case calculation as a percentage of SML (or restriction), Application 2” value ([4]; product SBDEV1287) of the same compound?
A: 76.01 percentage of SML (or restriction)
